In PMC12120022, “Discovery and chemical optimisation of a potent, Bi-cyclic antimicrobial inhibitor of Escherichia coli PBP3” (Communications Biology, 2025):
Where a SMILES comes first, the peptide text is derived from it.

Target: T1, EcPBP3 (Escherichia coli, UniProt P0AD68)
T1 construct: For assays, selections and SPR a construct with residues 60–588 which has the N-terminal domain, but not the transmembrane helix, was used; made in house
Experiment: Fluorescence polarisation competition assay with fluorescent Bicycle tracer (tracer 1 / BCY12820)
Type: binding
Details: protein 9.4 nM sets sensitivity limit, top concentration 5 µM, read-out: Ki (nM) by fluorescence polarisation with tracer 1 (BCY12820 as tracer), Geometric mean (Lower 95% CI; Upper 95% CI, n=number of values)
Protocol: Competition fluorescence polarisation assays were run by observing the fluorescence polarisation of a fluorescent “tracer” Bicycle molecule which competes against an unlabelled peptide for binding to the EcPBP3 target. 10 µL of protein (9.4 nM) was mixed with either 5 µL of peptide or 5 µL of buffer and then the assay was initiated by the addition of 10 µL of tracer (1 nM) (final volume 25 µL), in a black 384 low bind, low volume plate (Corning). The buffer was 10 mM HEPES (Sigma), 2% (v/v) glycerol (Sigma), 300 mM NaCl (Sigma), adjusted to pH 8. The plate was incubated for 1 h at 25 °C and then read in a PHERAstar FS (BMG) using with an “FP 485 520 520” optic module (excitation 485 nm, emission 520 nm). The gain was determined immediately prior to the read on a tracer-only well.
Dotmatics (Dotmatics) workflows performing the above calculations were used to process the data. Values quoted are the geometric means of at least 2 repeats.

T1 sequence (P0AD68 60-588): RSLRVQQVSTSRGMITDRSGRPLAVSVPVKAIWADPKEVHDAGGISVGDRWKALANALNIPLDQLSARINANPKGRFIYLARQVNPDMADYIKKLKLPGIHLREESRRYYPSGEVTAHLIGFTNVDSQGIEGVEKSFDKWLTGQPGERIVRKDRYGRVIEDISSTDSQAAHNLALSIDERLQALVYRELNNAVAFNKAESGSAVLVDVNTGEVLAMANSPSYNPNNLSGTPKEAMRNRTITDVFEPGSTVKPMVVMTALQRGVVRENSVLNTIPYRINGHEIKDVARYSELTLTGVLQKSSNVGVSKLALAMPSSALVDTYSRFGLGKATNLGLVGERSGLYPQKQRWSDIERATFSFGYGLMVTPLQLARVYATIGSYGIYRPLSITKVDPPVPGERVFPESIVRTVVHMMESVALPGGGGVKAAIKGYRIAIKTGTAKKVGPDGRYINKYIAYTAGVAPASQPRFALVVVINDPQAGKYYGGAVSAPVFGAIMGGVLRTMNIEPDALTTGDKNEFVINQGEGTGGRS

SMILES	Ki
CC(C)[C@@H]1NC(=O)[C@H](Cc2c[nH]c3ccccc23)NC(=O)[C@@H]2CCCN2C(=O)[C@@H]2CSCCC(=O)N3CN(CN(C3)C(=O)CCSC[C@H](NC(=O)[C@H](C)N)C(=O)N[C@@H](CO)C(=O)N[C@@H](Cc3ccccc3)C(=O)N[C@@H]([C@@H](C)O)C(=O)N[C@@H](CCCCNC(=N)N)C(=O)N2)C(=O)CCSC[C@@H](C(=O)N[C@@H](C)C(N)=O)NC(=O)CNC(=O)[C@H](CCC(=O)O)NC1=O [Peptide 36] (HELM PEPTIDE1{A.C.S.F.T.[N=C(N)NCCCC[C@H](N[*:1])C(=O)[*:2]].C.P.W.V.E.G.C.A.[am]}|CHEM1{[O=C(CC[*:1])N1CN(C(=O)CC[*:2])CN(C(=O)CC[*:3])C1]}$PEPTIDE1,CHEM1,2:R3-1:R1|PEPTIDE1,CHEM1,7:R3-1:R2|PEPTIDE1,CHEM1,13:R3-1:R3$$$V2.0)	75 nM
CC(C)[C@@H]1NC(=O)[C@H](Cc2c[nH]c3ccccc23)NC(=O)[C@@H]2CCCN2C(=O)[C@@H]2CSCCC(=O)N3CN(CN(C3)C(=O)CCSC[C@H](NC(=O)[C@H](C)N)C(=O)N[C@@H](CO)C(=O)N[C@@H](Cc3ccccc3)C(=O)N3CCC[C@H]3C(=O)N[C@@H](CCCCNC(=N)N)C(=O)N2)C(=O)CCSC[C@@H](C(=O)N[C@@H](C)C(N)=O)NC(=O)CNC(=O)[C@@H]2CCCN2C1=O [Peptide 47] (HELM PEPTIDE1{A.C.S.F.P.[N=C(N)NCCCC[C@H](N[*:1])C(=O)[*:2]].C.P.W.V.P.G.C.A.[am]}|CHEM1{[O=C(CC[*:1])N1CN(C(=O)CC[*:2])CN(C(=O)CC[*:3])C1]}$PEPTIDE1,CHEM1,2:R3-1:R1|PEPTIDE1,CHEM1,7:R3-1:R2|PEPTIDE1,CHEM1,13:R3-1:R3$$$V2.0)	18 nM
CC[C@H](C)[C@@H]1NC(=O)[C@H](Cc2c[nH]c3ccccc23)NC(=O)[C@@H]2CCCN2C(=O)[C@@H]2CSCCC(=O)N3CN(CN(C3)C(=O)CCSC[C@H](NC(=O)[C@H](C)N)C(=O)N[C@@H](CO)C(=O)N[C@@H](Cc3ccccc3)C(=O)N3CCC[C@H]3C(=O)N[C@@H](CCCCNC(=N)N)C(=O)N2)C(=O)CCSC[C@@H](C(=O)N[C@@H](C)C(N)=O)NC(=O)CNC(=O)[C@H](CCC(=O)O)NC1=O [Peptide 45] (HELM PEPTIDE1{A.C.S.F.P.[N=C(N)NCCCC[C@H](N[*:1])C(=O)[*:2]].C.P.W.I.E.G.C.A.[am]}|CHEM1{[O=C(CC[*:1])N1CN(C(=O)CC[*:2])CN(C(=O)CC[*:3])C1]}$PEPTIDE1,CHEM1,2:R3-1:R1|PEPTIDE1,CHEM1,7:R3-1:R2|PEPTIDE1,CHEM1,13:R3-1:R3$$$V2.0)	< 9 nM
CC(C)[C@@H]1NC(=O)[C@H](Cc2c[nH]c3ccccc23)NC(=O)[C@@H]2CCCN2C(=O)[C@@H]2CSCCC(=O)N3CN(CN(C3)C(=O)CCSC[C@H](NC(=O)[C@H](C)N)C(=O)N[C@@H](CO)C(=O)N[C@@H](Cc3ccccc3)C(=O)N[C@@H](CC(=O)O)C(=O)N[C@@H](CCCCNC(=N)N)C(=O)N2)C(=O)CCSC[C@@H](C(=O)N[C@@H](C)C(N)=O)NC(=O)CNC(=O)[C@H](CCC(=O)O)NC1=O [Peptide 38] (HELM PEPTIDE1{A.C.S.F.D.[N=C(N)NCCCC[C@H](N[*:1])C(=O)[*:2]].C.P.W.V.E.G.C.A.[am]}|CHEM1{[O=C(CC[*:1])N1CN(C(=O)CC[*:2])CN(C(=O)CC[*:3])C1]}$PEPTIDE1,CHEM1,2:R3-1:R1|PEPTIDE1,CHEM1,7:R3-1:R2|PEPTIDE1,CHEM1,13:R3-1:R3$$$V2.0)	167 nM
CC(C)[C@@H]1NC(=O)[C@H](Cc2c[nH]c3ccccc23)NC(=O)[C@@H]2CCCN2C(=O)[C@@H]2CSCCC(=O)N3CN(CN(C3)C(=O)CCSC[C@H](NC(=O)[C@H](C)N)C(=O)N[C@@H](CO)C(=O)N[C@@H](Cc3ccccc3)C(=O)N[C@@H](CO)C(=O)N[C@@H](CCCCNC(=N)N)C(=O)N2)C(=O)CCSC[C@@H](C(=O)N[C@@H](C)C(N)=O)NC(=O)CNC(=O)[C@H](CCC(=O)O)NC1=O [Peptide 35] (HELM PEPTIDE1{A.C.S.F.S.[N=C(N)NCCCC[C@H](N[*:1])C(=O)[*:2]].C.P.W.V.E.G.C.A.[am]}|CHEM1{[O=C(CC[*:1])N1CN(C(=O)CC[*:2])CN(C(=O)CC[*:3])C1]}$PEPTIDE1,CHEM1,2:R3-1:R1|PEPTIDE1,CHEM1,7:R3-1:R2|PEPTIDE1,CHEM1,13:R3-1:R3$$$V2.0)	53.4 nM
CC(C)[C@@H]1NC(=O)[C@H](Cc2c[nH]c3ccccc23)NC(=O)[C@@H]2CCCN2C(=O)[C@@H]2CSCCC(=O)N3CN(CN(C3)C(=O)CCSC[C@H](NC(=O)[C@H](C)N)C(=O)N[C@@H](CO)C(=O)N[C@@H](Cc3ccccc3)C(=O)NCC(=O)N[C@@H](CCCCNC(=N)N)C(=O)N2)C(=O)CCSC[C@@H](C(=O)N[C@@H](C)C(N)=O)NC(=O)CNC(=O)[C@H](CCC(=O)O)NC1=O [Peptide 33] (HELM PEPTIDE1{A.C.S.F.G.[N=C(N)NCCCC[C@H](N[*:1])C(=O)[*:2]].C.P.W.V.E.G.C.A.[am]}|CHEM1{[O=C(CC[*:1])N1CN(C(=O)CC[*:2])CN(C(=O)CC[*:3])C1]}$PEPTIDE1,CHEM1,2:R3-1:R1|PEPTIDE1,CHEM1,7:R3-1:R2|PEPTIDE1,CHEM1,13:R3-1:R3$$$V2.0)	53.5 nM
CC(C)[C@@H]1NC(=O)[C@H](Cc2c[nH]c3ccccc23)NC(=O)[C@@H]2CCCN2C(=O)[C@@H]2CSCCC(=O)N3CN(CN(C3)C(=O)CCSC[C@@H](C(=O)N[C@@H](C)C(N)=O)NC(=O)[C@H](CC(N)=O)NC(=O)[C@H](CCC(=O)O)NC1=O)C(=O)CCSC[C@H](NC(=O)[C@H](C)N)C(=O)N[C@@H](CO)C(=O)N[C@@H](Cc1ccccc1)C(=O)N1CCC[C@H]1C(=O)N[C@@H](CCCCNC(=N)N)C(=O)N2 [Peptide 52] (HELM PEPTIDE1{A.C.S.F.P.[N=C(N)NCCCC[C@H](N[*:1])C(=O)[*:2]].C.P.W.V.E.N.C.A.[am]}|CHEM1{[O=C(CC[*:1])N1CN(C(=O)CC[*:2])CN(C(=O)CC[*:3])C1]}$PEPTIDE1,CHEM1,2:R3-1:R1|PEPTIDE1,CHEM1,7:R3-1:R2|PEPTIDE1,CHEM1,13:R3-1:R3$$$V2.0)	< 9 nM
CC(C)[C@@H]1NC(=O)[C@H](Cc2c[nH]c3ccccc23)NC(=O)CNC(=O)[C@@H]2CSCCC(=O)N3CN(CN(C3)C(=O)CCSC[C@H](NC(=O)[C@H](C)N)C(=O)N[C@@H](CO)C(=O)N[C@@H](Cc3ccccc3)C(=O)N3CCC[C@H]3C(=O)N[C@@H](CCCCNC(=N)N)C(=O)N2)C(=O)CCSC[C@@H](C(=O)N[C@@H](C)C(N)=O)NC(=O)CNC(=O)[C@H](CCC(=O)O)NC1=O [Peptide 41] (HELM PEPTIDE1{A.C.S.F.P.[N=C(N)NCCCC[C@H](N[*:1])C(=O)[*:2]].C.G.W.V.E.G.C.A.[am]}|CHEM1{[O=C(CC[*:1])N1CN(C(=O)CC[*:2])CN(C(=O)CC[*:3])C1]}$PEPTIDE1,CHEM1,2:R3-1:R1|PEPTIDE1,CHEM1,7:R3-1:R2|PEPTIDE1,CHEM1,13:R3-1:R3$$$V2.0)	> 5000 nM
CC(C)[C@@H]1NC(=O)[C@H](Cc2c[nH]c3ccccc23)NC(=O)[C@@H]2CCCN2C(=O)[C@@H]2CSCCC(=O)N3CN(CN(C3)C(=O)CCSC[C@H](NC(=O)[C@H](C)N)C(=O)N[C@@H](CCC(N)=O)C(=O)N[C@@H](Cc3ccccc3)C(=O)N3CCC[C@H]3C(=O)N[C@@H](CCCCNC(=N)N)C(=O)N2)C(=O)CCSC[C@@H](C(=O)N[C@@H](C)C(N)=O)NC(=O)CNC(=O)[C@H](CCC(=O)O)NC1=O [Peptide 30] (HELM PEPTIDE1{A.C.Q.F.P.[N=C(N)NCCCC[C@H](N[*:1])C(=O)[*:2]].C.P.W.V.E.G.C.A.[am]}|CHEM1{[O=C(CC[*:1])N1CN(C(=O)CC[*:2])CN(C(=O)CC[*:3])C1]}$PEPTIDE1,CHEM1,2:R3-1:R1|PEPTIDE1,CHEM1,7:R3-1:R2|PEPTIDE1,CHEM1,13:R3-1:R3$$$V2.0)	< 9 nM
CC(C)[C@@H]1NC(=O)[C@H](Cc2c[nH]c3ccccc23)NC(=O)[C@@H]2CCCN2C(=O)[C@@H]2CSCCC(=O)N3CN(CN(C3)C(=O)CCSC[C@@H](C(=O)N[C@@H](C)C(N)=O)NC(=O)[C@H](Cc3c[nH]cn3)NC(=O)[C@H](CCC(=O)O)NC1=O)C(=O)CCSC[C@H](NC(=O)[C@H](C)N)C(=O)N[C@@H](CO)C(=O)N[C@@H](Cc1ccccc1)C(=O)N1CCC[C@H]1C(=O)N[C@@H](CCCCNC(=N)N)C(=O)N2 [Peptide 53] (HELM PEPTIDE1{A.C.S.F.P.[N=C(N)NCCCC[C@H](N[*:1])C(=O)[*:2]].C.P.W.V.E.H.C.A.[am]}|CHEM1{[O=C(CC[*:1])N1CN(C(=O)CC[*:2])CN(C(=O)CC[*:3])C1]}$PEPTIDE1,CHEM1,2:R3-1:R1|PEPTIDE1,CHEM1,7:R3-1:R2|PEPTIDE1,CHEM1,13:R3-1:R3$$$V2.0)	< 9 nM
CC(C)[C@@H]1NC(=O)[C@H](Cc2ccc(O)cc2)NC(=O)[C@@H]2CCCN2C(=O)[C@@H]2CSCCC(=O)N3CN(CN(C3)C(=O)CCSC[C@H](NC(=O)[C@H](C)N)C(=O)N[C@@H](CO)C(=O)N[C@@H](Cc3ccccc3)C(=O)N3CCC[C@H]3C(=O)N[C@@H](CCCCNC(=N)N)C(=O)N2)C(=O)CCSC[C@@H](C(=O)N[C@@H](C)C(N)=O)NC(=O)CNC(=O)[C@H](CCC(=O)O)NC1=O [Peptide 42] (HELM PEPTIDE1{A.C.S.F.P.[N=C(N)NCCCC[C@H](N[*:1])C(=O)[*:2]].C.P.Y.V.E.G.C.A.[am]}|CHEM1{[O=C(CC[*:1])N1CN(C(=O)CC[*:2])CN(C(=O)CC[*:3])C1]}$PEPTIDE1,CHEM1,2:R3-1:R1|PEPTIDE1,CHEM1,7:R3-1:R2|PEPTIDE1,CHEM1,13:R3-1:R3$$$V2.0)	209 nM
